Legend:
Homo sapiens = species on record: Homo sapiens; experiment: Selectivity ratio of Ki for human adenosine A2A receptor to Ki for human adenosine A3 receptor
[1] = biological target: Adenosine receptors; A1 & A3 (Homo sapiens) (UniProt P30542+P0DMS8); experiment: Selectivity ratio of Ki for human adenosine A1 receptor to Ki for human adenosine A3 receptor
Adenosine receptor A1 = biological target: T1, Adenosine receptor A1 (Homo sapiens, UniProt P30542); experiment: Binding affinity to human adenosine A1 receptor
T1 sequence (P30542 whole entry): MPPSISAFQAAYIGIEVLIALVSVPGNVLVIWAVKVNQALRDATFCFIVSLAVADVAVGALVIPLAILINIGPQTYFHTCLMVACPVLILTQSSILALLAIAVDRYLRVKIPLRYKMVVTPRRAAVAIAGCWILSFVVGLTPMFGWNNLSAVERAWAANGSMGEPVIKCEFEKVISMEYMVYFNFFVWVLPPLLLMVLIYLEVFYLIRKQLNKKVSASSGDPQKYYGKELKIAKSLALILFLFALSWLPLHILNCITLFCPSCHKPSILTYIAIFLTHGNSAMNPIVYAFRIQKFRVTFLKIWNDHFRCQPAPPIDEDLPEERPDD

Adenosine receptor A2a = Adenosine receptor A2a (Homo sapiens, UniProt P29274); experiment: Binding affinity to human adenosine A2A receptor
Adenosine receptor A2a, sequence (P29274 whole entry): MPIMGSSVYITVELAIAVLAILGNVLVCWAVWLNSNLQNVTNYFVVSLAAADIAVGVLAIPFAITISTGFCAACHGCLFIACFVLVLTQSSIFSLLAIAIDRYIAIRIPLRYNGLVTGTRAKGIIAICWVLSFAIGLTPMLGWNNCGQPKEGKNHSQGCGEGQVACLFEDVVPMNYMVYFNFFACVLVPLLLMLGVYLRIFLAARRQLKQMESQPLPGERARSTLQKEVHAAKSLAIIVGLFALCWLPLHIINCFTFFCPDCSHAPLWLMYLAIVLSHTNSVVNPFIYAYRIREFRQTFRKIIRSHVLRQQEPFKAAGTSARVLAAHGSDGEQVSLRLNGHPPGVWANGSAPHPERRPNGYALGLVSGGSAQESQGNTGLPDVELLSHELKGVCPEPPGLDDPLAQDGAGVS

Adenosine receptor A3 = biological target: T2, Adenosine receptor A3 (Homo sapiens, UniProt P0DMS8); experiment: Binding affinity to human adenosine A3 receptor
T2 sequence (P0DMS8 whole entry): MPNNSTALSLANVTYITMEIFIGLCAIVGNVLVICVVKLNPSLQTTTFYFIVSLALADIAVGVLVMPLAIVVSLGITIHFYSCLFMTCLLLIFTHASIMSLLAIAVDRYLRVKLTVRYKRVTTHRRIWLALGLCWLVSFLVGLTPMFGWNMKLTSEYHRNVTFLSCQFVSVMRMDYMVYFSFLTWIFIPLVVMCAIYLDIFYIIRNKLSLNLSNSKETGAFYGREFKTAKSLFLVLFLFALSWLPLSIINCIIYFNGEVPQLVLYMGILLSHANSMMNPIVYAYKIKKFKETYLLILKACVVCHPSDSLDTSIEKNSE

| Compound | Ratio Ki (Homo sapiens) | Ratio Ki [1] | Ki (Adenosine receptor A1) [nM] | Ki (Adenosine receptor A2a) [nM] | Ki (Adenosine receptor A3; read-out: Ki) [nM] | Ki (Adenosine receptor A3; read-out: pKi (converted)) [nM] |
| --- | --- | --- | --- | --- | --- | --- |
| CNC(=O)[C@H]1O[C@@H](n2cnc3c(NC)nc(C#Cc4ccccn4)nc32)[C@H](O)[C@@H]1O | 60800 | 21800 |  |  |  |  |
| CNC(=O)[C@H]1O[C@@H](n2cnc3c(NC)nc(C#Cc4ccc(C(C)=O)cc4)nc32)[C@H](O)[C@@H]1O | 21300 | 30900 |  |  |  | 0.331 |
| CONc1nc(C#Cc2ccccc2)nc2c1ncn2[C@@H]1O[C@H](CO)[C@@H](O)[C@H]1O |  |  |  |  |  | 3.98 |

Continued, values first:

| Ratio Ki (Homo sapiens) | Ratio Ki [1] | Ki (Adenosine receptor A1) [nM] | Ki (Adenosine receptor A2a) [nM] | Ki (Adenosine receptor A3; read-out: Ki) [nM] | Ki (Adenosine receptor A3; read-out: pKi (converted)) [nM] | Compound |
| --- | --- | --- | --- | --- | --- | --- |
|  |  | 3920 | 1760 | 7.3 |  | CNC(=O)[C@H]1O[C@@H](n2cnc3c(N)nc(C#Cc4ccccc4)nc32)[C@H](O)[C@@H]1O |
| 115 | 85 |  |  |  |  | CNC(=O)[C@H]1O[C@@H](n2cnc3c(NC)nc(C#Cc4ccccc4)nc32)[C@H](O)[C@@H]1O |
| 29500 | 12400 |  |  |  |  | CNC(=O)[C@H]1O[C@@H](n2cnc3c(NC)nc(C#Cc4ccc(F)cc4)nc32)[C@H](O)[C@@H]1O |
